According to USRE47689E1, “Compounds for treating spinal muscular atrophy” (PTC Therapeutics, Inc., priority 2011, dated 2019):
Like-named read-outs stand apart in the source and are kept apart here.

Experiments:
[1] = tested on: SMN2 minigene (full length SMN2 minigene mRNA containing SMN2 exon 7); assay: SMN2 minigene mRNA splicing RT-qPCR assay in cultured cells; type: cell-based, human; settings: Homo sapiens, HEK293-H, read-out: EC1.5x for production of full length SMN2 mRNA
Method in brief: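 HEK293H cells stably carrying the SMN2-A minigene treated 24 h at 37° C with compound (DMSO, 200× stock), then lysed. Multiplex RT-qPCR (SMN primers 0.4 μM final; 40 cycles) measures full-length exon 7-containing minigene mRNA, normalized to GAPDH and to vehicle; EC1.5x derived and binned by stars.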

Smn protein = Smn protein assay in cultured cells (SMN HTRF); type: cell-based, human; settings: 48 hours; for maximum fold (Fold) increase of Smn protein: SMA patient fibroblast cells, 7-point concentration data, fold increase relative to vehicle control (SMN HTRF); for EC1.5x (concentration giving 1.5-fold Smn protein increase): SMA Type 1 patient fibroblast cells (GM03813), 7-point concentration curve, SMN HTRF, concentration producing 1.5 times Smn protein vs DMSO vehicle control, read-out: EC1.5x for Smn protein expression
Method in brief: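 Lysates in RIPA with protease inhibitors are incubated overnight at room temperature with HTRF anti-SMN antibodies. EC1.5x is derived from fold increase in ΔF over vehicle.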

[2] = HEK293H cells stably transfected with SMN2-A minigene, 24 hours, 7-point concentration curve, 1.5-fold relative to vehicle-treated cells

| melting point | Compound | EC (1.5-fold) [1, 2] | maximum fold (Fold) increase of Smn protein (Smn protein) | EC1.5x (concentration giving 1.5-fold Smn protein increase) (Smn protein) | EC (1.5-fold) ([1]; 24 h) |
| --- | --- | --- | --- | --- | --- |
| 170 to 172 °C | CCOc1cccc(-c2cc3ccc(N4CCN(C)CC4)cc3oc2=O)n1 [Compound 381, 3-(6-ethoxypyridin-2-yl)-7-(4-methylpiperazin-1-yl)-2H-chromen-2-one] | 1 to 3 µM | * (maximum fold increase of ≤1.2) | – | – |
| 275 °C (dec.) | Cc1nc(C)c2cc(-c3cc4ccc(N5CCNCC5)cc4oc3=O)sc2n1 [Cpd 705, 3-(2,4-dimethylthieno[2,3-d]pyrimidin-6-yl)-7-(piperazin-1-yl)-2H-chromen-2-one] | 0.1 to 0.3 µM | *** (fold increase between >1.35 and ≤1.5) | – | – |
| 260 to 264 °C | C[C@@H]1CN(c2ccc3cc(-c4cn(-c5ccccc5)cn4)c(=O)oc3c2)C[C@H](C)N1 [Cpd 452, 7-[(3R,5S)-3,5-dimethylpiperazin-1-yl]-3-(1-phenyl-1H-imidazol-4-yl)-2H-chromen-2-one] | 3 to 30 µM | * (maximum fold increase of ≤1.2) | – | – |
| 253 to 255 °C | Cc1cn2cc(-c3cc4ccc(N5CCCN(C)CC5)cc4oc3=O)nc2c(C)n1 [Compound 519, 3-(6,8-dimethylimidazo[1,2-a]pyrazin-2-yl)-7-(4-methyl-1,4-diazepan-1-yl)-2H-chromen-2-one] | < 0.1 µM | ***** (fold increase >1.65) | < 300 nM | – |
| 248 to 252 °C | O=c1oc2cc(CN3CCC(O)CC3)ccc2cc1-c1cn2ccsc2n1 [Compound 346, 7-[(4-hydroxypiperidin-1-yl)methyl]-3-(imidazo[2,1-b][1,3]thiazol-6-yl)-2H-chromen-2-one] | 3 to 30 µM | ** (fold increase between >1.2 and ≤1.35) | – | – |
| 193 to 198 °C | O=c1oc2cc(N3CCNCC3)cc(F)c2cc1-c1cc(F)cc(F)c1 [Cpd 290, 3-(3,5-difluorophenyl)-5-fluoro-7-(piperazin-1-yl)-2H-chromen-2-one] | 0.3 to 1 µM | * (maximum fold increase of ≤1.2) | – | – |
| 152 to 155 °C | CN1CCCN(c2ccc3cc(-c4cn5cc(F)ccc5n4)c(=O)oc3c2)CC1 [Compound 294, 3-(6-fluoroimidazo[1,2-a]pyridin-2-yl)-7-(4-methyl-1,4-diazepan-1-yl)-2H-chromen-2-one] | 0.1 to 0.3 µM | ** (fold increase between >1.2 and ≤1.35) | 1000 to 3000 nM | – |
| 246 to 248 °C | CCN1CCN(c2ccc3cc(-c4cc5ccccn5n4)c(=O)oc3c2)CC1 [Compound 194, 7-(4-ethylpiperazin-1-yl)-3-(pyrazolo[1,5-a]pyridin-2-yl)-2H-chromen-2-one] | 0.3 to 1 µM | * (maximum fold increase of ≤1.2) | – | – |
| 169 to 171 °C | COc1cc(-c2cc3ccc(N4CCN(C)CC4)cc3oc2=O)ccn1 [Compound 165, 3-(2-methoxypyridin-4-yl)-7-(4-methylpiperazin-1-yl)-2H-chromen-2-one] | 3 to 30 µM | ** (fold increase between >1.2 and ≤1.35) | – | – |
| 169 to 173 °C | Cc1cn2cc(-c3cc4ccc(N5CCN6CCC[C@H]6C5)cc4oc3=O)cc2c(C)n1 [Compound 673, 3-(1,3-dimethylpyrrolo[1,2-a]pyrazin-7-yl)-7-[(8aS)-hexahydropyrrolo[1,2-a]pyrazin-2(1H)-yl]-2H-chromen-2-one] | < 0.1 µM | ***** (fold increase >1.65) | < 300 nM | – |
| 207 to 212 °C | Cc1cn2cc(-c3cc4ccc(C5CCN(CCO)CC5)cc4oc3=O)nc2c(C)n1 [Compound 750, 3-(6,8-dimethylimidazo[1,2-a]pyrazin-2-yl)-7-[1-(2-hydroxyethyl)piperidin-4-yl]-2H-chromen-2-one] | < 0.1 µM | ***** (fold increase >1.65) | < 300 nM | – |
| 153 to 156 °C | Cc1cn2cc(-c3cc4ccc(N5CCN(C(C)C)[C@@H](C)C5)cc4oc3=O)cc2c(C)n1 [Compound 768, 3-(1,3-dimethylpyrrolo[1,2-a]pyrazin-7-yl)-7-[(3S)-3-methyl-4-(propan-2-yl)piperazin-1-yl]-2H-chromen-2-one] | < 0.1 µM | **** (fold increase between >1.5 and ≤1.65) | < 300 nM | – |
| 189 to 193 °C | Cc1cn2cc(-c3cc4ccc(N5CCC(N(C)C)CC5)cc4oc3=O)nc2c(C)n1 [Compound 921, 7-[4-(dimethylamino)piperidin-1-yl]-3-(6,8-dimethylimidazo[1,2-a]pyrazin-2-yl)-2H-chromen-2-one] | < 0.1 µM | **** (fold increase between >1.5 and ≤1.65) | < 300 nM | – |
| 178 to 181 °C | Cc1cn2cc(-c3cc4ccc(N5CCCNCC5)cc4oc3=O)cc2cn1 [Compound 638, 7-(1,4-diazepan-1-yl)-3-(3-methylpyrrolo[1,2-a]pyrazin-7-yl)-2H-chromen-2-one] | < 0.1 µM | **** (fold increase between >1.5 and ≤1.65) | < 300 nM | – |
| 248 to 250 °C | C[C@@H]1CN(c2ccc3cc(-c4cn5ccncc5n4)c(=O)oc3c2)C[C@H](C)N1 [Compound 417, 7-[(3R,5S)-3,5-dimethylpiperazin-1-yl]-3-(imidazo[1,2-a]pyrazin-2-yl)-2H-chromen-2-one] | 0.1 to 0.3 µM | *** (fold increase between >1.35 and ≤1.5) | < 300 nM | – |
| 191 to 193 °C | C[C@@H]1CN(c2ccc3cc(-c4cc5ccccc5o4)c(=O)oc3c2)C[C@H](C)N1 [Compound 604, 3-(1-benzofuran-2-yl)-7-[(3R,5S)-3,5-dimethylpiperazin-1-yl]-2H-chromen-2-one] | 0.3 to 1 µM | * (maximum fold increase of ≤1.2) | – | – |
| 240 to 242 °C | O=c1oc2cc(N3CCNCC3)ccc2cc1-c1cn2cc(Cl)sc2n1 [Compound 494, 3-(2-chloroimidazo[2,1-b][1,3]thiazol-6-yl)-7-(piperazin-1-yl)-2H-chromen-2-one] | 0.1 to 0.3 µM | * (maximum fold increase of ≤1.2) | – | – |
| 264 to 268 °C | Cc1cn2cc(-c3cc4ccc(N5C[C@@H](O)[C@H](N6CCCC6)C5)cc4oc3=O)cc2c(C)n1 [Compound 751, 3-(1,3-dimethylpyrrolo[1,2-a]pyrazin-7-yl)-7-[(3′R,4′R)-4′-hydroxy-1,3′-bipyrrolidin-1′-yl]-2H-chromen-2-one] | < 0.1 µM | ** (fold increase between >1.2 and ≤1.35) | – | – |
| 199 to 202 °C | Cc1cn2cc(-c3cc4ccc(OCCN(CCO)CCO)cc4oc3=O)nc2c(C)n1 [Compound 896, 7-{2-[bis(2-hydroxyethyl)amino]ethoxy}-3-(6,8-dimethylimidazo[1,2-a]pyrazin-2-yl)-2H-chromen-2-one] | < 0.1 µM | ***** (fold increase >1.65) | < 300 nM | – |
| 250 to 252 °C | Cc1nc(Cl)cn2cc(-c3cc4ccc(N5CCN(C)[C@H](C)C5)cc4oc3=O)nc12 [Compound 726, 3-(6-chloro-8-methylimidazo[1,2-a]pyrazin-2-yl)-7-[(3R)-3,4-dimethylpiperazin-1-yl]-2H-chromen-2-one] | < 0.1 µM | **** (fold increase between >1.5 and ≤1.65) | 300 to 1000 nM | – |
| 252 to 255 °C | Cc1ccc2nc(-c3cc4ccc(N5CCCNCC5)cc4oc3=O)cn2n1 [Compound 631, 7-(1,4-diazepan-1-yl)-3-(6-methylimidazo[1,2-b]pyridazin-2-yl)-2H-chromen-2-one] | 0.3 to 1 µM | * (maximum fold increase of ≤1.2) | – | – |
| 250 to 252 °C | Cc1ccc2nc(-c3cc4ccc(N5CCC(N)CC5)cc4oc3=O)cn2c1 [Compound 219, 7-(4-aminopiperidin-1-yl)-3-(6-methylimidazo[1,2-a]pyridin-2-yl)-2H-chromen-2-one] | 3 to 30 µM | * (maximum fold increase of ≤1.2) | – | – |

| Compound | melting point | EC (1.5-fold) [1, 2] | maximum fold (Fold) increase of Smn protein (Smn protein) | EC1.5x (concentration giving 1.5-fold Smn protein increase) (Smn protein) | EC (1.5-fold) ([1]; 24 h) |
| --- | --- | --- | --- | --- | --- |
| C[C@H]1CN(c2ccc3cc(-c4ccccn4)c(=O)oc3c2)CCN1 [Compound 444, 7-[(3S)-3-methylpiperazin-1-yl]-3-(pyridin-2-yl)-2H-chromen-2-one] | 145 to 147 °C | – | * (maximum fold increase of ≤1.2) | – | 3 to 30 µM |
| Cc1ccn2cc(-c3cc4ccc(N5C[C@H]6CC[C@@H](C5)N6C)cc4oc3=O)nc2c1 [Compound 535, 7-[(1R,5S)-8-methyl-3,8-diazabicyclo[3.2.1]oct-3-yl]-3-(7-methylimidazo[1,2-a]pyridin-2-yl)-2H-chromen-2-one] | 224 to 229 °C | – | * (maximum fold increase of ≤1.2) | – | 1 to 3 µM |
